Counter-ions that a name gives are not always drawn.

T1 sequence (Q13639 1-387 isoform Q13639-2): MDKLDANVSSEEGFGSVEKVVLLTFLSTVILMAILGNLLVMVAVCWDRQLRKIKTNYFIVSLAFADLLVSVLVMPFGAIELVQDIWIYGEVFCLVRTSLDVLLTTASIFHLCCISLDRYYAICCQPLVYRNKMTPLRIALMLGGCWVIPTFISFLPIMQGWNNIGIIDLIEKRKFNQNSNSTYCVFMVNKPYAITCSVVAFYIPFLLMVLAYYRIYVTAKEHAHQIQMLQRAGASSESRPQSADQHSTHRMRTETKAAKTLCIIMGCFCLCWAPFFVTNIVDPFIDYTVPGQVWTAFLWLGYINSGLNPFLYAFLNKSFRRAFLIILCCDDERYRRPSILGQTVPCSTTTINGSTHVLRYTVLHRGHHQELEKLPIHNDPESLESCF

The experiment addresses T1, human 5-HT4(a) (Homo sapiens, UniProt Q13639).
T1 construct: host or cells: GeneBIAzer HTR4-CRE-bla CHO-K1 cells
Kind of experiment: Evaluation of agonistic activity in CHO-K1 cells expressing human 5-HT4(a) (GeneBIAzer HTR4-CRE-bla CHO-K1 cells, beta-lactamase fluorescence ratio, EC50 from 8 concentrations). It counts as cell-based. Here is the method:
Evaluation of Agonistic Activity in CHO-K1 Cells Expressing Human 5-HT4(a)
As CHO-K1 cells stably expressing human 5-HT4(a), we used the GeneBIAzer HTR4-CRE-bla CHO-K1 cells (Invitrogen Corp.). The cells were cultured, under the condition of 37° C. and 5% CO2, in a DMEM supplemented with 10% fetal bovine serum (FBS), 25 mM HEPES (pH7.4), 600 μg/ml hygromycin B, 0.1 mM non-essential amino acids, 100 unit/ml penicillin and 100 μg/ml streptomycin. Subcultures were performed three times per one week, each being at less than 80% confluence. At the previous day before treating test compounds, the cells were collected using 0.5% trypsin/EDTA and then diluted with a DMEM supplemented with 1% FBS, 25 mM HEPES, and 0.1 mM non-essential amino acids into 3.125×10^5 cells/ml. 32 μl of the diluted cells were added into 384-well plate (10^4 cells per well) and then incubated overnight. After the overnight culture, 8 μl of the medium having 1% of DMSO was added into the cell-free control well and the non-stimulating control well, respectively. 8 μl of the respective test compound dilutions (which had been prepared by diluting by 100-times with the medium as mentioned in the above) having 1% of DMSO were added to the respective remaining wells. After being cultured in the incubator for 5 hours, the wells of the 384-plate were treated with the substrate solution (8 μl per well) prepared according to the vendor's instruction (i.e., Invitrogen's instruction), and then incubated in the dark room for additional two hours. Agonistic activities on 5-HT4 receptor were evaluated, on the basis of fluorescence values of the cleavage-products by beta-lactamase. After exciting to 410 nm of wavelength using a fluorescence detector (Genios Pro), we measured the fluorescence values at two emission wavelengths (first wavelength: 465 nm, second wavelength: 535 nm). Data were analyzed on the basis of the ratio of fluorescence intensities of each well at the respective wavelengths. Each EC50 value was calculated by non-linear regression analysis using the “GraphPad Prism” program, based on the activities according to 8-different concentrations of the test compounds.
As usually defined, the EC50 is the concentration at which the effect is half-maximal. As to `CCCc1cc(N2CCCCC2CCO)nc(Nc2cccc(C#N)c2)n1` (centres unmarked) [Example 131, 3-{4-[2-(2-hydroxyethyl)piperidin-1-yl]-6-propylpyrimidin-2-ylamino}benzonitrile], the EC50 turned out to be 120 pM.
As for `CCCc1cc(N2CCCCC2CCO)nc(Nc2ccc3nc(C(F)(F)F)[nH]c3c2)n1` (centres unmarked) [Example 136, 2-(1-{6-propyl-2-[2-(trifluoromethyl)-1H-benzo[d]imidazol-6-ylamino]pyrimidin-4-yl}piperidin-2-yl)ethanol], the figure is 350 pM; as for `CCCc1cc(N2CCCCC2CCO)nc(Nc2cccc(OC)c2)n1` (centres unmarked) [Example 138, 2-{1-[2-(3-methoxyphenylamino)-6-propylpyrimidin-4-yl]piperidin-2-yl}ethanol], 460 pM.
For `CCCc1cc(N2CCCCC2CCO)nc(Nc2ccc(C)c(Cl)c2)n1` (centres unmarked) [Example 140, 2-{1-[2-(3-chloro-4-methylphenylamino}-6-propylpyrimidin-4-yl]piperidin-2-yl}ethanol] the value was 280 pM.
Regarding `CCCc1cc(N2CCCCC2CCO)nc(Nc2cccc([N+](=O)[O-])c2)n1` (centres unmarked) [Example 141, 2-{1-[2-(3-nitrophenylamino)-6-propylpyrimidin-4-yl]piperidin-2-yl}ethanol], the concentration for a half-maximal effect (EC50) is 150 pM.
As for `CCCc1cc(N2CCCCC2CCO)nc(Nc2ccc(F)c([N+](=O)[O-])c2)n1` (centres unmarked) [Example 142, 2-{1-[2-(4-fluoro-3-nitrophenylamino)-6-propylpyrimidin-4-yl]piperidin-2-yl}ethanol], the figure is 300 pM; as for `CCCc1cc(N2CCCCC2CCO)nc(Nc2ccc3c(C)cc(=O)oc3c2)n1` (centres unmarked) [Example 146, 7-{4-[2-(2-hydroxyethyl)piperidin-1-yl]-6-propylpyrimidin-2-ylamino}-4-methyl-2H-chromen-2-one], 270 pM; as for `CCCc1cc(N2CCCCC2CCO)nc(Nc2cccc(C(F)(F)F)c2)n1` (centres unmarked) [Example 147, 2-{1-[6-propyl-2-(3-trifluoromethylphenylamino)pyrimidin-4-yl]piperidin-2-yl}ethanol], 310 pM.
For `CCCc1cc(N2CCC[C@H](N)C2)nc(Nc2ccc(C)c(C#N)c2)n1` [Example 150, (S)-5-[4-(3-aminopiperidin-1-yl)-6-propylpyrimidin-2-ylamino]-2-methylbenzonitrile dihydrochloride] the value was 70 pM.
For `CCCc1cc(N2CCC[C@H](N)C2)nc(Nc2cccc([N+](=O)[O-])c2)n1` [Example 151, (S)-4-(3-aminopiperidin-1-yl)-N-(3-nitrophenyl)-6-propylpyrimidin-2-amine dihydrochloride] the value was 361 pM.
In the case of `CCCc1cc(N2CCC[C@@H](N)C2)nc(Nc2ccc(C)c(C#N)c2)n1` [Example 153, (R)-5-[4-(3-aminopiperidin-1-yl)-6-propylpyrimidin-2-ylamino]-2-methylbenzonitrile], the EC50 is 20 pM.
For `CCCCN[C@H]1CCCN(c2cc(CCC)nc(Nc3ccc(C)c(C#N)c3)n2)C1` [Example 154, (S)-5-{4-[3-(butylamino)piperidin-1-yl]-6-propylpyrimidin-2-ylamino}-2-methylbenzonitrile] the value was 41 pM.
As for `CCCCCN[C@H]1CCCN(c2cc(CCC)nc(Nc3ccc(C)c(C#N)c3)n2)C1` [Example 155, (S)-5-{4-[3-(pentylamino)piperidin-1-yl]-6-propylpyrimidin-2-ylamino}-2-methylbenzonitrile], the figure is 93 pM; as for `CCCc1cc(N2CCC[C@H](NCC(C)C)C2)nc(Nc2ccc(C)c(C#N)c2)n1` [Example 156, (S)-5-{4-[3-(isobutylamino)piperidin-1-yl]-6-propylpyrimidin-2-ylamino}-2-methylbenzonitrile], 66 pM; as for `CCCc1cc(N2CCC[C@H](NCCC(C)C)C2)nc(Nc2ccc(C)c(C#N)c2)n1` [Example 157, (S)-5-{4-[3-(isopentylamino)piperidin-1-yl]-6-propylpyrimidin-2-ylamino}-2-methylbenzonitrile], 88 pM.
For `CCCc1cc(N2CCC[C@H](NCC(C)(C)C)C2)nc(Nc2ccc(C)c(C#N)c2)n1` [Example 158, (S)-2-methyl-5-{4-[3-(neopentylamino)piperidin-1-yl]-6-propylpyrimidin-2-ylamino}benzonitrile] the value was 54 pM.
For the molecule `CCCc1cc(N2CCC[C@H](NCc3ccc[nH]3)C2)nc(Nc2ccc(C)c(C#N)c2)n1` [Example 159, (S)-5-(4-{3-[(1H-pyrrol-2-yl)methylamino]piperidin-1-yl}-6-propylpyrimidin-2-ylamino)-2-methylbenzonitrile], the EC50 was found to be 46 pM.
As for `CCCc1cc(N2CCC[C@H](NCc3cccs3)C2)nc(Nc2ccc(C)c(C#N)c2)n1` [Example 160, (S)-2-methyl-5-(4-propyl-6-{3-[(thiophen-2-ylmethyl)amino]piperidin-1-yl}pyrimidin-2-ylamino)benzonitrile], the EC50 is 125 pM.
For `CCCc1cc(N2CCC[C@H](NCc3cc(C)c(C)o3)C2)nc(Nc2ccc(C)c(C#N)c2)n1` [Example 161, (S)-5-(4-{3-[(4,5-dimethylfuran-2-ylmethyl)amino]piperidin-1-yl}-6-propylpyrimidin-2-ylamino)-2-methylbenzonitrile] the value was 148 pM; for `CCCc1cc(N2CCC[C@H](NCCCSC)C2)nc(Nc2ccc(C)c(C#N)c2)n1` [Example 162, (S)-2-methyl-5-{4-[3-(3-methylthiopropylamino)piperidin-1-yl]-6-propylpyrimidin-2-ylamino}benzonitrile], 43 pM.
As for `CCCc1cc(N2CCC[C@H](NCC3CC3)C2)nc(Nc2ccc(C)c(C#N)c2)n1` [Example 163, (S)-5-{4-[3-(cyclopropylmethylamino)piperidin-1-yl]-6-propylpyrimidin-2-ylamino}-2-methylbenzonitrile], the figure is 88 pM.
As to `CCCc1cc(N2CCC[C@H](NCc3ccc(O)cc3)C2)nc(Nc2ccc(C)c(C#N)c2)n1` [Example 164, (S)-5-{4-[3-(4-hydroxybenzylamino)piperidin-1-yl]-6-propylpyrimidin-2-ylamino}-2-methylbenzonitrile], the EC50 was 75 pM.
For `CCCc1cc(N2CCC[C@H](N(CC)CC)C2)nc(Nc2ccc(C)c(C#N)c2)n1` [Example 165, (S)-5-[4-(3-diethylaminopiperidin-1-yl)-6-propylpyrimidin-2-ylamino]-2-methylbenzonitrile] the value was 188 pM; for `CCCc1cc(N2CCCCC2CCO)nc(Nc2ccc(C)c([N+](=O)[O-])c2)n1` (centres unmarked) [Example 174, 2-{1-[2-(4-methyl-3-nitrophenylamino)-6-propylpyrimidin-4-yl]piperidin-2-yl}ethanol], 39 pM.
For `CCCc1cc(N2CCCCC2CCO)nc(Nc2ccc(N)c(C(F)(F)F)c2)n1` (centres unmarked) [Example 175, 2-{1-[2-(4-amino-3-trifluoromethylphenylamino)-6-propylpyrimidin-4-yl]piperidin-2-yl}ethanol] the value was 35 pM; for `CCCc1cc(N2CCCCC2CCO)nc(Nc2ccc(N)c([N+](=O)[O-])c2)n1` (centres unmarked) [Example 176, 2-{1-[2-(4-amino-3-nitrophenylamino)-6-propylpyrimidin-4-yl]piperidin-2-yl}ethanol], 18 pM.
As for `CCCc1cc(N2CCCCC2CCO)nc(Nc2ccc(C)c(C#N)c2)n1` (centres unmarked) [Example 177, 5-{4-[2-(2-hydroxyethyl)piperidin-1-yl]-6-propylpyrimidin-2-ylamino}-2-methylbenzonitrile], the figure is 49 pM; as for `CCCc1cc(N2CCCCC2CCO)nc(Nc2ccc(F)c(C#N)c2)n1` (centres unmarked) [Example 178, 2-fluoro-5-{4-[2-(2-hydroxyethyl)piperidin-1-yl]-6-propylpyrimidin-2-ylamino}benzonitrile], 82 pM; as for `CCCc1cc(N2CCCCC2CCO)nc(Nc2ccc(N)c(C#N)c2)n1` (centres unmarked) [Example 179, 2-amino-5-{4-[2-(2-hydroxyethyl)piperidin-1-yl]-6-propylpyrimidin-2-ylamino}benzonitrile], 27 pM.
Take `CCCc1cc(N2CCCCC2CCO)nc(Nc2ccc(C)c(N)c2)n1` (centres unmarked) [Example 180, 2-{1-[2-(3-amino-4-methylphenylamino)-6-propylpyrimidin-4-yl]piperidin-2-yl}ethanol]: the 50% effective concentration (EC50) is 153 pM.
As for `CCCc1cc(N2CCCCC2CCO)nc(Nc2ccc(F)c(N)c2)n1` (centres unmarked) [Example 181, 2-{1-[2-(3-amino-4-fluorophenylamino)-6-propylpyrimidin-4-yl]piperidin-2-yl}ethanol], the EC50 was 25 pM.
As for `CCCc1cc(N2CCCCC2CCO)nc(Nc2ccc(Cl)c(N)c2)n1` (centres unmarked) [Example 182, 2-{1-[2-(3-amino-4-chlorophenylamino)-6-propylpyrimidin-4-yl]piperidin-2-yl}ethanol], the figure is 22 pM.

Source of the values: patent publication US9850227B2 (YUHAN CORPORATION, priority 2011, dated 2017).
